In brackets after ≈: the same amount, converted by molar mass.
System: Candida albicans ATCC 10231
Assay: Minimum inhibitory concentration (MIC) by broth microdilution method
Assay type: cell-based
Details: for MIC value: broth microdilution in MH broth, 37° C., 12 hours, OD600, MIC = lowest concentration that inhibited the growth of more than 90% of the strains; for activity against Candida albicans (in words): summary statement of the MIC experiments
Experimental: The minimum inhibitory concentration (MIC) values of echinocandin E and echinocandin F were determined by broth microdilution method, and the test strain was Candida albicans ATCC 10231. The MIC value was defined as the lowest antibiotic concentration that inhibited the growth of more than 90% of the strains. Amphotericin B was used as a positive control and echinocandin B as a reference, and each sample was subjected to three parallel experiments.
Candida albicans was cultured in Mueller-Hinton (MH) broth (50 mL 20× Nitrate Salts, 1 mL Trace Elements, and 10.0 g glucose, dissolved in 800 mL ddH2O, adjusted to pH 6.5, fixed to 1 L, added with 16.0 g agar powder, and sterilized at 121° C. for 20 min) (purchased from Hangzhou Basebio Biotechnology Co., Ltd. (Basebio)) and cultured at 37° C. and 180 rpm for 12-16 hours. The fungal solution concentration was controlled to […] by gradient dilution with MH broth.
The sample solution was prepared by dissolving the test samples (amphotericin B, echinocandin B, echinocandin E, echinocandin F) in DMSO to prepare a stock solution with a concentration of 40 μg/ml. An appropriate amount of sterile MH broth medium and the test compounds were added to a 96-well plate, and Candida albicans was quantitatively inoculated so that the total liquid volume in each well was 100 μL. The final concentrations of the compounds were 2, 1.5, 1, 0.8, 0.6, 0.4, 0.2, 0.1, 0.05 and 0 μg/ml, respectively, and DMSO (volume concentration of 5%) was used as a negative control.
The fungal concentration was measured at OD600 using an ELISA reader to determine the MIC value of each sample.

Row | Compound | MIC value [µg/mL] | activity against Candida albicans (in words)
1 | C[C@@H]1[C@H](O)[C@@H](C)/C=C/C=C/C=C/C=C/C=C/C=C/C=C/[C@H](O[C@@H]2O[C@H](C)[C@@H](O)[C@H](N)[C@@H]2O)C[C@@H]2O[C@](O)(C[C@@H](O)C[C@@H](O)[C@H](O)CC[C@@H](O)C[C@@H](O)CC(=O)O[C@H]1C)C[C@H](O)[C@H]2C(=O)O [Amphotericin B, reference compound] | 0.2 (≈ 0.216 µM) | –
2 | echinocandin B [reference compound] | 0.4 | –
3 | echinocandin E | 0.6 | good activity
4 | echinocandin F | 1.0 | good activity
5 | echinocandin G | 0.8 | good activity
6 | echinocandin H | 0.8 | good activity

From patent US20250360180A1, “ECHINOCANDIN COMPOUND, AND PREPARATION METHOD THEREFOR AND USE THEREOF” (Zhejiang University, priority 2022, published 2025)
